From ChEMBL document CHEMBL4321842 (J Med Chem, 2019)

Columns and labels:
[1] = biological target: T1, Myosin light chain kinase family member 4 (Homo sapiens, UniProt Q86YV6); test: Inhibition of MYLK4 (unknown origin) expressed in human HEK293 cells incubated for 2 hrs followed by NanoBRET NanoGlo Substrate addition by NanoBRET assay; type: cell-based
T1 sequence (Q86YV6 whole entry): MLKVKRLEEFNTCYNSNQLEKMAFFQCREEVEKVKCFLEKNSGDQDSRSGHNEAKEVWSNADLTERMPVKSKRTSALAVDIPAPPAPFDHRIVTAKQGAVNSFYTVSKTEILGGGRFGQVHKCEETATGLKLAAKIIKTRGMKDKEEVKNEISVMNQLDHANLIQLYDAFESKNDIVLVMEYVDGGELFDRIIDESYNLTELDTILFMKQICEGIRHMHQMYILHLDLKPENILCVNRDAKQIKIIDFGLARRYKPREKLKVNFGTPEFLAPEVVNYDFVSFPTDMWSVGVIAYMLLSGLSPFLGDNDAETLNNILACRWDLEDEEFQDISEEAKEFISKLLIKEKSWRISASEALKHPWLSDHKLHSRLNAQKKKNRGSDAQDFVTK

[2] = test system: Blood; test: Inhibition of LPS-induced TNFalpha production in human whole blood preincubated for 15 mins followed by LPS stimulation and measured after 2.5 hrs by ELISA; type: functional, tissue-based
[3] = biological target: Mitogen-activated protein kinase 11 (Homo sapiens, UniProt Q15759); test: Inhibition of p38-beta (unknown origin) expressed in human HEK293 cells incubated for 2 hrs followed by NanoBRET NanoGlo Substrate addition by NanoBRET assay; type: cell-based
[4] = biological target: Epithelial discoidin domain-containing receptor 1 (Homo sapiens, UniProt Q08345); test: Inhibition of DDR1 (unknown origin) expressed in human HEK293 cells incubated for 2 hrs followed by NanoBRET NanoGlo Substrate addition by NanoBRET assay; type: cell-based
[5] = test system: Blood; test: Inhibition of LPS-induced TNFalpha production in human whole blood at 10 uM preincubated for 15 mins followed by LPS stimulation and measured after 2.5 hrs by ELISA relative to control; type: functional
[6] = biological target: Mitogen-activated protein kinase 14 (Homo sapiens, UniProt Q16539); test: Inhibition of full-length human C-terminal NanoLuc-tagged P38 alpha MAPK expressed in human HEK293T cells incubated for 2 hrs followed by NanoBRET NanoGlo Substrate addition by NanoBRET assay; type: cell-based
[7] = biological target: Mast/stem cell growth factor receptor Kit (Homo sapiens, UniProt P10721); test: Inhibition of KIT (unknown origin) expressed in human HEK293 cells incubated for 2 hrs followed by NanoBRET NanoGlo Substrate addition by NanoBRET assay; type: cell-based
[8] = biological target: T2, Discoidin domain-containing receptor 2 (Homo sapiens, UniProt Q16832); test: Inhibition of DDR2 (unknown origin) expressed in human HEK293 cells incubated for 2 hrs followed by NanoBRET NanoGlo Substrate addition by NanoBRET assay; type: cell-based
T2 sequence (Q16832 whole entry): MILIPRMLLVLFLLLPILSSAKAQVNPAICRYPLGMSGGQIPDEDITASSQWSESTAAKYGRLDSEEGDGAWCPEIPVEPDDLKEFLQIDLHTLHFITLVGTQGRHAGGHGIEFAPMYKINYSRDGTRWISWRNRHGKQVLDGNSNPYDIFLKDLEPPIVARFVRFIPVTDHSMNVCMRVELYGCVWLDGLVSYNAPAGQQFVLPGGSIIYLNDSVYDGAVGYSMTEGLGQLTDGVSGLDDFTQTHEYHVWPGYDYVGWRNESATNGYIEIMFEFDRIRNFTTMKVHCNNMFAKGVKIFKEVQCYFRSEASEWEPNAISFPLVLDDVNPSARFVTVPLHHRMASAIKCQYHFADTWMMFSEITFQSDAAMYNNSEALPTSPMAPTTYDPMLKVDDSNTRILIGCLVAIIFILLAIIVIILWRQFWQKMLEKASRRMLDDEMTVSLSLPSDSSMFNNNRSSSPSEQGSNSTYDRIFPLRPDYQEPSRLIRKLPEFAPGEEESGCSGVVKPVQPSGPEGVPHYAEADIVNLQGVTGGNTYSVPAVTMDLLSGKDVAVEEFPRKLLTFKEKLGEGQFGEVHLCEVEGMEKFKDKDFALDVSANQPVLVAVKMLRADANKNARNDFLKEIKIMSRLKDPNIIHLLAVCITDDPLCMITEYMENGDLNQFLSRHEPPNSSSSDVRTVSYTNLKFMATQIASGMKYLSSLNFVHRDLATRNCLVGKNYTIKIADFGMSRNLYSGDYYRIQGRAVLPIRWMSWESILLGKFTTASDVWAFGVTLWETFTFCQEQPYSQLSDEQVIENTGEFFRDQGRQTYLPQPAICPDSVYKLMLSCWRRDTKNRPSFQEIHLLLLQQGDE

[9] = biological target: Ribosomal protein S6 kinase alpha-6 (Homo sapiens, UniProt Q9UK32); test: Inhibition of RSK4 kinase domain 1 (unknown origin) expressed in human HEK293 cells incubated for 2 hrs followed by NanoBRET NanoGlo Substrate addition by NanoBRET assay; type: cell-based
Chain of Ribosomal protein S6 kinase alpha-6 (Q9UK32 whole entry, the tested form may be a part): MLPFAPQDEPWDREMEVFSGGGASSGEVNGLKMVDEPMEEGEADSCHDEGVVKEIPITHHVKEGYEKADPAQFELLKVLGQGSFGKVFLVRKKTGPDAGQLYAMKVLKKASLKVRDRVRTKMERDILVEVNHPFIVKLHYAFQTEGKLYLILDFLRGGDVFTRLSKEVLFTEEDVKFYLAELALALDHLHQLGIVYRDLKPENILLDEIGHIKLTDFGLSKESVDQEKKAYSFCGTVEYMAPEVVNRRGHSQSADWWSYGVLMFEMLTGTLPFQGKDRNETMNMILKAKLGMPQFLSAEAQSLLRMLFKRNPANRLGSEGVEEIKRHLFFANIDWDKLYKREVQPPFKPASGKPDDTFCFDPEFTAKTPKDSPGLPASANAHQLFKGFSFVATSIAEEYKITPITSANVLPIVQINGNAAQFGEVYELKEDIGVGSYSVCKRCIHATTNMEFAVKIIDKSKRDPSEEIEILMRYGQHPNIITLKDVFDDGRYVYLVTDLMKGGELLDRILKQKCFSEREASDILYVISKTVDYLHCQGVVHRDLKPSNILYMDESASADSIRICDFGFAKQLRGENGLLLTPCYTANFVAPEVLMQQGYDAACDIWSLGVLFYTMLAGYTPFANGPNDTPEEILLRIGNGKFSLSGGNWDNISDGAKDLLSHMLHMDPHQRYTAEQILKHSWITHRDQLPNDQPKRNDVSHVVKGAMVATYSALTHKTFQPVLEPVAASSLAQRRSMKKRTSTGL

Chain of Mast/stem cell growth factor receptor Kit (P10721 whole entry, the tested form may be a part): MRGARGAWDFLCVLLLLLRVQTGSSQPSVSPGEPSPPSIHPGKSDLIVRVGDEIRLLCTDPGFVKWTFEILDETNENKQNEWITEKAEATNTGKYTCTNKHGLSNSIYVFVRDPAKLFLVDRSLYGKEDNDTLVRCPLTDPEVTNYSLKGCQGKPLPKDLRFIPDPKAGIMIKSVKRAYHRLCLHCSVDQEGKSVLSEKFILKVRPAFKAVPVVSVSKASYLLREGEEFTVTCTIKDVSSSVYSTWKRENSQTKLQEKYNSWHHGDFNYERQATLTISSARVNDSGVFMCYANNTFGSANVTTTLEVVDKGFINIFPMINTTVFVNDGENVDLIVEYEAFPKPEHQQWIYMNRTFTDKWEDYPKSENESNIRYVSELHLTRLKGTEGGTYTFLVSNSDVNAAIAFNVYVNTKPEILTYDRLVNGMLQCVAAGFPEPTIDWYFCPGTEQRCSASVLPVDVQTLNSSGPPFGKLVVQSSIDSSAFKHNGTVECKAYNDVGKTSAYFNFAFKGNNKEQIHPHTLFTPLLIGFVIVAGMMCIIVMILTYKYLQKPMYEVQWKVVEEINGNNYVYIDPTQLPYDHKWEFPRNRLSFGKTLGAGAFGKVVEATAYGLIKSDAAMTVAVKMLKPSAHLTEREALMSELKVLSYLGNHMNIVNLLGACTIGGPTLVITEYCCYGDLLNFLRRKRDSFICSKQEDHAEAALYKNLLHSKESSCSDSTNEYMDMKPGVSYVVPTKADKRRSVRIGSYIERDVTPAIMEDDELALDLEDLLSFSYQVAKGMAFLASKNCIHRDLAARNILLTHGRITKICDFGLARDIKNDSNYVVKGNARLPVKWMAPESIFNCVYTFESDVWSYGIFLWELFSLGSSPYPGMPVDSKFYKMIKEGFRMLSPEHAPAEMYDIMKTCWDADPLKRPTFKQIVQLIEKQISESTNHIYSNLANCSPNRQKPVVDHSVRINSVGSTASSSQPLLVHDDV
Chain of Mitogen-activated protein kinase 14 (Q16539 whole entry): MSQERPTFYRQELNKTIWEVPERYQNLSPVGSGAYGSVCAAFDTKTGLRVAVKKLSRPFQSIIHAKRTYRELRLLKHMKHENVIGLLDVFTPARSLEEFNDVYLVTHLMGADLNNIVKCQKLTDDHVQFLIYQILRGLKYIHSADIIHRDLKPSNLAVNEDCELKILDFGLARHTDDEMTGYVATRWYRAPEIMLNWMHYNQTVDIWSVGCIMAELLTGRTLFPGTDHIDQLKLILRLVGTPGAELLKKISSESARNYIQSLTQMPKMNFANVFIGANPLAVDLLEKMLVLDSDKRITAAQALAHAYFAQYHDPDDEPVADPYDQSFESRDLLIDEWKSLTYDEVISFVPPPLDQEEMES
Chain of Mitogen-activated protein kinase 11 (Q15759 whole entry, the tested form may be a part): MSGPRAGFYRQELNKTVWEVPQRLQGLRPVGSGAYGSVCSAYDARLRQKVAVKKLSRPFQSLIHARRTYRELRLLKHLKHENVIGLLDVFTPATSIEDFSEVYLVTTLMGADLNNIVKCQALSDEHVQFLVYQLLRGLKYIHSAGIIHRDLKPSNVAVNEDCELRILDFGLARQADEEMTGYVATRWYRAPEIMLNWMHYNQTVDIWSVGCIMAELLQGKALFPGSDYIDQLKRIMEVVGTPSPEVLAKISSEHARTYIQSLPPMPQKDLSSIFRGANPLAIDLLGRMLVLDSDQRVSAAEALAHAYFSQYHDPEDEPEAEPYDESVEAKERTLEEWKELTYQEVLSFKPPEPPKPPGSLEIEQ
Chain of Epithelial discoidin domain-containing receptor 1 (Q08345 whole entry, the tested form may be a part): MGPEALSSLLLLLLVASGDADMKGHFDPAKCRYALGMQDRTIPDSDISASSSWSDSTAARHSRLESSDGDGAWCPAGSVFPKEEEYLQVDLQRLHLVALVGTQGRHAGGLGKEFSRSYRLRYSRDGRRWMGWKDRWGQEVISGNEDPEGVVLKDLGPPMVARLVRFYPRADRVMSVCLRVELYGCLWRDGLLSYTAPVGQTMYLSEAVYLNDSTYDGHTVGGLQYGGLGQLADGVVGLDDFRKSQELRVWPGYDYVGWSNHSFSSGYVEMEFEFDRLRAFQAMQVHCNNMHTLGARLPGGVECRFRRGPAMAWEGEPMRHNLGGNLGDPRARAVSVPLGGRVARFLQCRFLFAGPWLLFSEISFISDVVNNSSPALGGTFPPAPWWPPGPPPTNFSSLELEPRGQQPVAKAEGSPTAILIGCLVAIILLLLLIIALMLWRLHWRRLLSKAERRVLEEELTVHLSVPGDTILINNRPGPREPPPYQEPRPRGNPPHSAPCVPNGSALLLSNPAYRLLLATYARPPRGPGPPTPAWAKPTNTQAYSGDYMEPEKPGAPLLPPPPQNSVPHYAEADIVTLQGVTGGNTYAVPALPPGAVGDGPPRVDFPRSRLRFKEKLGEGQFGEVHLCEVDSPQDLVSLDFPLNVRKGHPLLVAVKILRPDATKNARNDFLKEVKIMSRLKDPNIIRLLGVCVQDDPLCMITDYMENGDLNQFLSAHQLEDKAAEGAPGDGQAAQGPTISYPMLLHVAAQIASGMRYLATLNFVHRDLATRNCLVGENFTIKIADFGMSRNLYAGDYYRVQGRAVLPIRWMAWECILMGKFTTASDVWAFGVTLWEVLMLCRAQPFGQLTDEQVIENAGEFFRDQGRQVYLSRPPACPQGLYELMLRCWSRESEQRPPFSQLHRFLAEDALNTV

IC50 [1]: > 20 µM
IC50 [2]: > 10 µM
IC50 [3]: 11 µM
IC50 [4]: 13 µM
IC50 [6]: 13 µM
IC50 [7]: > 20 µM
IC50 [8]: 0.22 µM
IC50 [9]: > 20 µM
SMILES: O=C(NCCCC1CCCCC1)c1ccc(CNC(=O)c2cnn(-c3ccccc3)c2C(F)(F)F)cc1 [SR-321]
inhibition at 10 µM [5]: 6.35%
